For assay [1], the system named is MCF-7 breast adenocarcinoma cells. Description: MCF-7 proliferation assay (14C-thymidine), antagonist mode. Particulars: with 10 pM E2. It is filed as cell-based. The procedure:
MCF-7 breast adenocarcinoma cells (ATCC HTB 22) are maintained in MEM (minimal essential medium, phenol red-free, Gibco BRL) supplemented with 10% fetal bovine serum (FBS) (V/V), L-glutamine (2 mM), sodium pyruvate (1 mM), HEPES ((N-[2-hydroxyethyl]piperazine-N′-[2-ethanesulfonic acid]10 mM}, non-essential amino acids(0.1 mM)and Penicillin Streptomycin(1×). Seven days prior to assay, MCF-7 cells are switched to assay media which is the same as maintenance medium except supplemented with 10% dextran-coated charcoal-stripped fetal bovine serum (DCC-FBS) assay medium in place of 10% FBS. MCF-7 cells are removed from flasks using 10× Trypsin EDTA (phenol red free, Gibco BRL) and diluted to 1× in (Ca++/Mg++ free HBSS (phenol red-free). Cells are adjusted to 80,000 cells/ml in assay medium. Approximately 8,000 cells (100 μl) are added to each well in 96 well Cytostar T scintillation plates (Amersham) and incubated at 37° C. in a 5% CO2 humidified incubator for 24 hours to allow cell adherence and equilibration after transfer. Serial dilutions of drugs are prepared in assay medium at 4× the final desired concentration). A 50 μl aliquot of drug dilutions (at 4× the final assay concentration) is transferred to duplicate wells followed by 50 μl assay medium for the agonist mode or 50 μl of 40 pM of E2 for the antagonist mode to a final volume of 200 μl. For each of the agonist plates, a basal level (media) and a maximum stimulated level (with 1 μM E2) is determined. For each of the antagonist plates, a basal level (media) and a E2 (10 pM) alone control is determined. After an additional 48 hours at 37° C. in a 5% CO2 humidified incubator, 20 μl of assay medium containing 0.01 μCi of ^14C-thymidine (52 mCi/mmol, […], Amersham) is added to each well. The plates are incubated overnight in the same incubator and then counted on the Wallac Microbeta counter. […] For the agonist mode, an EC50 and percent of maximum E2 stimulation and concentration of maximum stimulation is calculated.

The next assay deals with T1, ERbeta receptor (Homo sapiens, UniProt Q92731).
T1 construct: purchased PanVera
T1 sequence (Q92731 whole entry): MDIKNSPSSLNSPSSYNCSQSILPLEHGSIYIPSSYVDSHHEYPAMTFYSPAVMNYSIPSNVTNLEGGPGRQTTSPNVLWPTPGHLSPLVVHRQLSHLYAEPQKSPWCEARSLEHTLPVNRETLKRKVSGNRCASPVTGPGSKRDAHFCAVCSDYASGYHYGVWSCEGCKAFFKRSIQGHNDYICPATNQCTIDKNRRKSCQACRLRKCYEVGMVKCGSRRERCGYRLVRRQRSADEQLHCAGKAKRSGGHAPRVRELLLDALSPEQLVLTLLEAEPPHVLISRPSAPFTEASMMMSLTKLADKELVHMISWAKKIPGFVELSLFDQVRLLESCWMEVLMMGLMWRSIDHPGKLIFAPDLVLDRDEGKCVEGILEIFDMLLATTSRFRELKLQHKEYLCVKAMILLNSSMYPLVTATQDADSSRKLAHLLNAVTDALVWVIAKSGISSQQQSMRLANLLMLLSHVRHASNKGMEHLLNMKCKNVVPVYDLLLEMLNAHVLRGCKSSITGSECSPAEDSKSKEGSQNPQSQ
Kind of assay: ER beta competition binding assay (3H-Estradiol). The conditions noted are these: 3H-Estradiol competition; IC50 converted to Ki using Cheng-Prusoff; read-out: ER binding Ki (ERβ). On the procedure: (§1) Competition binding assay is run in a buffer containing 50 mM Hepes, pH 7.5, 1.5 mM EDTA, 150 mM NaCl, 10% glycerol, 1 mg/ml ovalbumin and 5 mM DTT, using 0.025 μCi per well ^3H-Estradiol(NEN #NET517 at 118 Ci/mmol, 1 mCi/ml), 10 ng/well ERAlpha or ERbeta receptor (PanVera). Competing compounds are added at 10 different concentrations. Non-specific binding is determined in the presence of 1 μM of 17-B Estradiol. The binding reaction (140 μl) is incubated for 4 hours at room temperature, then 70 μl of cold DCC buffer is added to each reaction (DCC buffer contains per 50 ml of assay buffer, 0.75 g of charcoal (Sigma) and 0.25 g of dextran (Pharmacia)). Plates are mixed 8 minutes on an orbital shaker at 4° C. Plates are then centrifuged at 3,000 rpm at 4° C. for 10 minutes. An aliquot of 120 μl of the mix is transferred to another 96-well, white flat bottom plate (Costar) and 175 μl of Wallac Optiphase “Hisafe 3” scintillation fluid is added to each well. Plates are sealed and shaken vigorously on an orbital shaker. After an incubation of 2.5 hrs, read plates in a Wallac Microbeta counter. […] The Kd for ^3H-Estradiol is determined by saturation binding to ER alpha and ER beta receptors. The IC50 values for compounds are converted to Ki using Cheng-Prusoff equation and the Kd determined by saturation binding assay.

The subject of assay [2] is Ishikawa human endometrial tumor cells. Description: Ishikawa cell assay (PNPP readout), antagonist mode. In kind it is cell-based. Particulars: with 1 nM E2. From the text:
(§2) Ishikawa human endometrial tumor cells are maintained in MEM (minimum essential medium, with Earle's salts and L-Glutamine, Gibco BRL, Gaithersburg, Md.), supplemented with 10% fetal bovine serum (FBS) (V/V), (Gibco BRL). One day prior to assay, growth media is changed to assay medium, DMEM/F-12 (3:1) (Dulbecco's Modified Eagle Medium: Nutrient Mixture F-12, 3:1 Mixture, phenol red-free, Gibco BRL) supplemented with 5% dextran coated charcoal stripped fetal bovine serum (DCC-FBS) (Hyclone, Logen, Utah), L-Glutamine (2 mM), MEM sodium pyruvate (1 mM), HEPES (N-[2-hydroxyethyl]piperazine-N′-[2-ethanesulfonic acid] 2 mM) all from Gibco BRL). After an overnight incubation, ishikawa cells are rinsed with Dulbecco's Phosphate Buffered Saline (1×) (D-PBS) without Ca^+2 and Mg^+2 (Gibco BRL), and trypsinized by a 3 minute incubation with 0.25% Trypsin/EDTA, phenol red-free (Gibco BRL). Cells are resuspended in assay medium and adjusted to 250,000 cells/ml. Approximately 25,000 cells in a 100 ul media are added to flat-bottom 96 wells microculture plates (Costar 3596) and incubated at 37° C. in a 5% CO2 humidified incubator for 24 hours. The next day, serial dilutions of compounds are prepared in assay medium (at 6 times the final concentration in the assay). The assay is run in dual mode, agonist and antagonist modes. For the agonist mode, plates receive 25 μl/well of assay medium followed by 25 μl/well of diluted compounds (at 6× the final concentrations). For the antagonist mode, plates receive 25 μl/well of 6 nM E2 (β-Estradiol, Sigma, St. Louis, Mo.) followed by 25 μl/well of diluted compounds (at 6× the final concentrations). After an additional 48-hour incubation at 37° C. in a 5% CO2 humidified incubator, media is aspirated from wells and 100 μl fresh assay medium is added to each microculture. Serial dilutions of compounds are prepared and added to the cells as described above. After an additional 72 hour incubation at 37° C. in a 5% CO2 humidified incubator, the assay is quenched by removing media and rinsing plates twice in Dulbecco's Phosphate Buffered Saline (1×) (D-PBS) (Gibco BRL). The plates are dried for 5 min and frozen at −70° C. for at least 1 hour. The plates are then removed from the freezer and allowed to thaw at room temperature. To each well, 100 μl of 1-Step™ PNPP (Pierce Chemical Company, Rockford, Ill.) is added. After a 20-minute incubation, plates are read on a spectophotometer at 405 nm. The data is fitted to a linear interpolation to derive EC50 (for agonist mode) or IC50 (for antagonist mode) values. For the agonist mode, a % efficacy for each compound is calculated versus the response to Tamoxifen. For the antagonist mode, a % efficacy for each compound is calculated versus E2 (1 nM) alone.

For assay [3] the test system is unchanged. Kind of assay: Ishikawa cell assay (PNPP readout), agonist mode. It is filed as cell-based. Particulars: for Emax / Ishikawa Agonist % Eff: % efficacy versus the response to Tamoxifen; for Emax: read-out: Ishikawa Agonist % Eff.
Text: as §2

The next assay deals with T2, ERAlpha receptor (Homo sapiens, UniProt P03372).
T2 construct: purchased PanVera
T2 sequence (P03372 1-595): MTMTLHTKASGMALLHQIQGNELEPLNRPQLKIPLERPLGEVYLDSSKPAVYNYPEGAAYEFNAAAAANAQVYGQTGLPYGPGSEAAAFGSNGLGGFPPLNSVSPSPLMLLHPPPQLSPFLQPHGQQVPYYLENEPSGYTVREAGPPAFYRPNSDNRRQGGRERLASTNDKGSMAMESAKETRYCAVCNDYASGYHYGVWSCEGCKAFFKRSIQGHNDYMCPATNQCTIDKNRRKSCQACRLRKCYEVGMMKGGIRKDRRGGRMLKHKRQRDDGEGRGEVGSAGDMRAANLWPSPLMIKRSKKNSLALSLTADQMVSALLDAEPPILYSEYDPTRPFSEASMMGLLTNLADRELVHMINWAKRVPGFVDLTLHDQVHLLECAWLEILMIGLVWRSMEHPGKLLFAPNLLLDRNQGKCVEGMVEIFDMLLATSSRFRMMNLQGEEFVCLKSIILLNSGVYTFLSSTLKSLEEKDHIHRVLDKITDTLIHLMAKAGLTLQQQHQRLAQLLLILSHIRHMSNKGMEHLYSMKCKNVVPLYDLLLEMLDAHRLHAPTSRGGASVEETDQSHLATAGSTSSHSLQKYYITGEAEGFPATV
Kind of assay: ER alpha competition binding assay (3H-Estradiol). Particulars: 3H-Estradiol competition; IC50 converted to Ki using Cheng-Prusoff; read-out: ER binding Ki (ERα). The procedure:
as §1

Setting [4] is: Homo sapiens, MCF7, antagonist mode.

Where a name gives a salt, the structure may show the parent alone. Read-outs that look alike come from different tables or passages of the source.

Regarding `Oc1ccc2c3c(ccc2c1)Cc1ccc(F)cc1C3c1ccc(OCCN2CCCCC2)cc1` (racemic) [Example 5, 10-Fluoro-12-[4-(2-piperidin-1-yl-ethoxy)-phenyl]-7,12-dihydro-benzo[a]anthracen-3-ol], the IC50 in assay [1] (setting [4]) is 91 nM; in assay [2], 610 nM. The values for the Ki at ERbeta receptor and at ERAlpha receptor were 31 nM and 3 nM, respectively. In assay [3] (Homo sapiens, Ishikawa), this compound had a concentration for a half-maximal effect (EC50) of 11 nM. Moreover, the Emax in assay [3] (Homo sapiens, Ishikawa) is 79%.
For the compound `Oc1ccc2c3c(ccc2c1)Cc1ccc(F)cc1C3c1ccc(OCCN2CCCCC2)cc1` (racemic) [Example 6, 10-fluoro-12-[4-(2-piperidin-1-yl-ethoxy)-phenyl]-7,12-dihydro-benzo[a]anthracen-3-ol], the IC50 in assay [1] (antagonist mode) is 740 nM. In assay [3], a half-maximal response (EC50) required 116 nM.
In the case of `Oc1ccc2c3c(ccc2c1)Cc1ccc(F)cc1C3c1ccc(OCCN2CCCCC2)cc1` (racemic) [Example 7, 10-fluoro-12-[4-(2-piperidin-1-yl-ethoxy)-phenyl]-7,12-dihydro-benzo[a]anthracen-3-ol], the IC50 in assay [1] (antagonist mode) is 9 nM. In addition, in assay [3], the response was half-maximal at 3 nM (EC50) and the “Ishikawa Agonist % Eff” value is given as 72%. In addition, the Ki on ERAlpha receptor was determined as 1 nM.
In assay [1] (antagonist mode), `Oc1ccc2c(c1)Cc1ccc3cc(O)ccc3c1C2c1ccc(OCCN2CCCCC2)cc1` (racemic) [Example 9, 12-[4-(2-Piperidin-1-yl-ethoxy)-phenyl]-7,12-dihydro-benzo[a]anthracene-3,9-diol] showed an IC50 of 2 nM. In addition, on ERbeta receptor, the inhibition constant Ki amounted to 4 nM. In assay [3], a half-maximal effect (EC50) was put at 1 nM and the “Ishikawa Agonist % Eff” value amounted to 27%.
As for `Oc1ccc2c(c1)Cc1ccc3cc(O)ccc3c1C2c1ccc(OCCN2CCCCC2)cc1` (racemic) [Example 10, 12-[4-(2-piperidin-1-yl-ethoxy)-phenyl]-7,12-dihydro-benzo[a]anthracene-3,9-diol], on ERbeta receptor, the Ki is 5 nM. Besides, in assay [3], it took 3 nM to reach a half-maximal effect (EC50) and the “Ishikawa Agonist % Eff” value is 56%.
For the compound `Oc1ccc2c(c1)Cc1ccc3cc(O)ccc3c1C2c1ccc(OCCN2CCCCC2)cc1` (racemic) [Example 11, 12-[4-(2-piperidin-1-yl-ethoxy)-phenyl]-7,12-dihydro-benzo[a]anthracene-3,9-diol], in assay [1] (antagonist mode), the IC50 is 2 nM. Further, the inhibition constant Ki on ERbeta receptor is 4 nM. In assay [3], it took 1 nM to reach a half-maximal effect (EC50) and the “Ishikawa Agonist % Eff” value worked out at 19%.
For the compound `Oc1ccc2c3c(ccc2c1)Cc1ccc(F)cc1C3c1ccc(OCCN2CCCCC2)cc1` (single isomer, unassigned) [Example 6, 10-fluoro-12-[4-(2-piperidin-1-yl-ethoxy)-phenyl]-7,12-dihydro-benzo[a]anthracen-3-ol], the inhibition constant (Ki) at ERbeta receptor is 149 nM; at ERAlpha receptor, 70 nM. Besides, the Emax in assay [3] (Homo sapiens, Ishikawa) was 69%.
In the case of `Oc1ccc2c3c(ccc2c1)Cc1ccc(F)cc1C3c1ccc(OCCN2CCCCC2)cc1` (single isomer, unassigned) [Example 7, 10-fluoro-12-[4-(2-piperidin-1-yl-ethoxy)-phenyl]-7,12-dihydro-benzo[a]anthracen-3-ol], at ERbeta receptor, the inhibitory constant (Ki) amounted to 9 nM. Also, it took 440 nM to reach half-maximal inhibition in assay [2] (IC50).
As for `Oc1ccc2c3c(sc2c1)Cc1ccccc1C3c1ccc(OCCN2CCCCC2)cc1` (stereo not shown) [Example 1, 11-[4-(2-Piperidin-1-yl-ethoxy)-phenyl]-6,11-dihydro-benzo[b]naphtho[2,3-d]thiophen-3-ol trifluoroacetate], the IC50 was determined as 17 nM in assay [1] (setting [4]) and 712 nM in assay [2]. In addition, the results for the Ki on ERbeta receptor and on ERAlpha receptor were 5 nM and 2 nM, respectively. In assay [3] (Homo sapiens, Ishikawa), this compound gave an EC50 of 3 nM. Besides, the Emax in assay [3] (Homo sapiens, Ishikawa) came out at 77%.
Consider `Oc1ccc2c(c1)Cc1sc3cc(O)ccc3c1C2c1ccc(OCCN2CCCCC2)cc1` (stereo not shown) [Example 2, 11-[4-(2-Piperidin-1-yl-ethoxy)-phenyl]-6,11-dihydro-benzo[b]naphtho[2,3-d]thiophene-3,8-diol trifluoroacetate], for which the half-maximal inhibitory concentration (IC50) in assay [1] (setting [4]) came out at 1 nM; in assay [2], 45 nM. Besides, the Ki at ERbeta receptor and on ERAlpha receptor was 1 nM in each case. The response in assay [3] (Homo sapiens, Ishikawa) was half-maximal at 0.5 nM (EC50). For the same compound, the Emax in assay [3] (Homo sapiens, Ishikawa) came out at 103%.

Source of the values: US7119206B2, “Derivative of dihydro-dibenzo (a) anthracenes and their use as selective estrogen receptor modulators” (Eli Lilly and Company, priority 2002, dated 2006).
